# According to US4464385A, “Treatment of diabetic complications with hydantoins” (Alcon Laboratories, Inc., priority 1982, dated 1984):
# “Also recorded” adds a separate entry of the source.
# Key:
# aldose reductase = experiment: Aldose reductase inhibition / potency (general statement)
# cataracts in rats = experiment: Prevention or retardation of cataracts in galactose-fed rats; type: in vivo, rat; conditions: for suppression of the formation of nuclear cataracts: 30 days; for % of Total Eyes, + (vacuole) / % of Total Eyes, - (Normal) / % of Total Eyes, N (nuclear cataract) / % of Total Eyes, S (snowflake) / Number of Eyes Observed, + (vacuole) / Number of Eyes Observed, - (Normal) / Number of Eyes Observed, N (nuclear cataract) / Number of Eyes Observed, S (snowflake) / Number of Eyes Observed, ±: 30% galactose diet, A,C,E 0.0025%, B,D 0.01%
# Procedure, shortened: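 Twelve rats per treatment, after two days on chow, were fed compound/diet mixtures ad libitum from Study Day 1 for thirty days; the 0.01% level was designed for 20 mg/kg/day. Cataracts were scored per eye using ophthalmoscope and/or penlight.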
substance,measurement,setting,value
"dl-spiro-(6-methylthio-chroman-4,4'-imidazolidine)-2',5'-dione",potency relative to the resolved 6-fluoro compound,aldose reductase,potency similar to the resolved 6-fluoro compound
same,suppression of the formation of nuclear cataracts,cataracts in rats; 0.0025% in diet,greater than 80%
same,"time of suppression, time to vacuole formation",cataracts in rats; 0.01% in diet,13.5 days
same,"time to snowflake / retardation of cataract, versus Sarges 0.0025% d-6-fluoro",cataracts in rats; 0.01% in diet,not significantly different from the Sarges 0.0025% d-6-fluoro control; also recorded: retard the progress of cataract formation slightly better than the Sarges control; also recorded: surpassed the positive control
same,"time to vacuole formation, versus Sarges 0.0025% d-6-fluoro",cataracts in rats; 0.01% in diet,statistically lower (p<0.05) than the Sarges standard
same,suppression of the formation of nuclear cataracts,cataracts in rats; 0.01% in diet,100%
same,"% of Total Eyes, + (vacuole)",cataracts in rats; Study Day 2,0%
same,"% of Total Eyes, - (Normal)",cataracts in rats; Study Day 2,100.0%
same,"% of Total Eyes, N (nuclear cataract)",cataracts in rats; Study Day 2,0%
same,"% of Total Eyes, S (snowflake)",cataracts in rats; Study Day 2,0%
same,"Number of Eyes Observed, + (vacuole)",cataracts in rats; Study Day 2,0 eyes
same,"Number of Eyes Observed, - (Normal)",cataracts in rats; Study Day 2,24 eyes
same,"Number of Eyes Observed, N (nuclear cataract)",cataracts in rats; Study Day 2,0 eyes
same,"Number of Eyes Observed, S (snowflake)",cataracts in rats; Study Day 2,0 eyes
same,"Number of Eyes Observed, ±",cataracts in rats; Study Day 2,0 eyes
same,"% of Total Eyes, + (vacuole)",cataracts in rats; Study Day 3,0%
same,"% of Total Eyes, - (Normal)",cataracts in rats; Study Day 3,100.0%
same,"% of Total Eyes, N (nuclear cataract)",cataracts in rats; Study Day 3,0%
same,"% of Total Eyes, S (snowflake)",cataracts in rats; Study Day 3,0%
same,"Number of Eyes Observed, + (vacuole)",cataracts in rats; Study Day 3,0 eyes
same,"Number of Eyes Observed, - (Normal)",cataracts in rats; Study Day 3,24 eyes
same,"Number of Eyes Observed, N (nuclear cataract)",cataracts in rats; Study Day 3,0 eyes
same,"Number of Eyes Observed, S (snowflake)",cataracts in rats; Study Day 3,0 eyes
same,"Number of Eyes Observed, ±",cataracts in rats; Study Day 3,0 eyes
same,"% of Total Eyes, + (vacuole)",cataracts in rats; Study Day 4,0%
same,"% of Total Eyes, - (Normal)",cataracts in rats; Study Day 4,16.7%
same,"% of Total Eyes, N (nuclear cataract)",cataracts in rats; Study Day 4,0%
same,"% of Total Eyes, S (snowflake)",cataracts in rats; Study Day 4,0%
same,"Number of Eyes Observed, + (vacuole)",cataracts in rats; Study Day 4,0 eyes
same,"Number of Eyes Observed, - (Normal)",cataracts in rats; Study Day 4,4 eyes
same,"Number of Eyes Observed, N (nuclear cataract)",cataracts in rats; Study Day 4,0 eyes
same,"Number of Eyes Observed, S (snowflake)",cataracts in rats; Study Day 4,0 eyes
same,"Number of Eyes Observed, ±",cataracts in rats; Study Day 4,20 eyes
same,"% of Total Eyes, + (vacuole)",cataracts in rats; Study Day 5,75.0%
same,"% of Total Eyes, - (Normal)",cataracts in rats; Study Day 5,0%
same,"% of Total Eyes, N (nuclear cataract)",cataracts in rats; Study Day 5,0%
same,"% of Total Eyes, S (snowflake)",cataracts in rats; Study Day 5,0%
same,"Number of Eyes Observed, + (vacuole)",cataracts in rats; Study Day 5,18 eyes
same,"Number of Eyes Observed, - (Normal)",cataracts in rats; Study Day 5,0 eyes
same,"Number of Eyes Observed, N (nuclear cataract)",cataracts in rats; Study Day 5,0 eyes
same,"Number of Eyes Observed, S (snowflake)",cataracts in rats; Study Day 5,0 eyes
same,"Number of Eyes Observed, ±",cataracts in rats; Study Day 5,6 eyes
same,"% of Total Eyes, + (vacuole)",cataracts in rats; Study Day 6,83.3%
same,"% of Total Eyes, - (Normal)",cataracts in rats; Study Day 6,0%
same,"% of Total Eyes, N (nuclear cataract)",cataracts in rats; Study Day 6,0%
same,"% of Total Eyes, S (snowflake)",cataracts in rats; Study Day 6,0%
same,"Number of Eyes Observed, + (vacuole)",cataracts in rats; Study Day 6,20 eyes
same,"Number of Eyes Observed, - (Normal)",cataracts in rats; Study Day 6,0 eyes
same,"Number of Eyes Observed, N (nuclear cataract)",cataracts in rats; Study Day 6,0 eyes
same,"Number of Eyes Observed, S (snowflake)",cataracts in rats; Study Day 6,0 eyes
same,"Number of Eyes Observed, ±",cataracts in rats; Study Day 6,4 eyes
same,"% of Total Eyes, + (vacuole)",cataracts in rats; Study Day 8,100.0%
same,"% of Total Eyes, - (Normal)",cataracts in rats; Study Day 8,0%
same,"% of Total Eyes, N (nuclear cataract)",cataracts in rats; Study Day 8,0%
same,"% of Total Eyes, S (snowflake)",cataracts in rats; Study Day 8,0%
same,"Number of Eyes Observed, + (vacuole)",cataracts in rats; Study Day 8,24 eyes
same,"Number of Eyes Observed, - (Normal)",cataracts in rats; Study Day 8,0 eyes
same,"Number of Eyes Observed, N (nuclear cataract)",cataracts in rats; Study Day 8,0 eyes
same,"Number of Eyes Observed, S (snowflake)",cataracts in rats; Study Day 8,0 eyes
same,"Number of Eyes Observed, ±",cataracts in rats; Study Day 8,0 eyes
same,"% of Total Eyes, + (vacuole)",cataracts in rats; Study Day 10,79.2%
same,"% of Total Eyes, - (Normal)",cataracts in rats; Study Day 10,0%
same,"% of Total Eyes, N (nuclear cataract)",cataracts in rats; Study Day 10,0%
same,"% of Total Eyes, S (snowflake)",cataracts in rats; Study Day 10,20.8%
same,"Number of Eyes Observed, + (vacuole)",cataracts in rats; Study Day 10,19 eyes
same,"Number of Eyes Observed, - (Normal)",cataracts in rats; Study Day 10,0 eyes
same,"Number of Eyes Observed, N (nuclear cataract)",cataracts in rats; Study Day 10,0 eyes
same,"Number of Eyes Observed, S (snowflake)",cataracts in rats; Study Day 10,5 eyes
same,"Number of Eyes Observed, ±",cataracts in rats; Study Day 10,0 eyes
same,"% of Total Eyes, + (vacuole)",cataracts in rats; Study Day 12,58.4%
same,"% of Total Eyes, - (Normal)",cataracts in rats; Study Day 12,0%
same,"% of Total Eyes, N (nuclear cataract)",cataracts in rats; Study Day 12,0%
same,"% of Total Eyes, S (snowflake)",cataracts in rats; Study Day 12,41.6%
same,"Number of Eyes Observed, + (vacuole)",cataracts in rats; Study Day 12,14 eyes
same,"Number of Eyes Observed, - (Normal)",cataracts in rats; Study Day 12,0 eyes
same,"Number of Eyes Observed, N (nuclear cataract)",cataracts in rats; Study Day 12,0 eyes
same,"Number of Eyes Observed, S (snowflake)",cataracts in rats; Study Day 12,10 eyes
same,"Number of Eyes Observed, ±",cataracts in rats; Study Day 12,0 eyes
same,"% of Total Eyes, + (vacuole)",cataracts in rats; Study Day 14,41.6%
same,"% of Total Eyes, - (Normal)",cataracts in rats; Study Day 14,0%
